Assays:
BT474 [1] = experiment: MTT proliferation assay, BT474; format: cell-based, human; details: 10 μM
Method: (§1) Fig. 2 Ebselen oxide inhibits HER2 activation, cell proliferation, and anchorage‐independent growth of HER2^+ breast cancer cells. […] Blot and quantification of a representative experiment are shown out of 4 (A), 5 (B), or 2 (C) independent experiments. (D–F) Proliferation curves of HER2‐positive (SKBR3, D or BT474, E) or HER2‐negative (MDA‐MB‐231, F) breast cancer cell lines treated with vehicle or 10 μM ebselen oxide assessed by MTT assay. […] (G–I) Anchorage‐independent growth of SKBR3 (G), BT474 (H), or MDA‐MB‐231 (I) cells treated with vehicle or 10 μM ebselen oxide. […] Scale bars are […].

SKBR3 [2] = experiment: Soft agar anchorage-independent growth, SKBR3; format: cell-based, human; details: 10 μM
Method: A bottom layer of 0.8% agarose in DMEM supplemented with 20% FBS and penicillin/streptomycin was added to 24‐well plates before seeding 25.10^3 cells per well in a 0.6% agarose top layer. Cells were treated with a vehicle or with 10 μM ebselen oxide or derivatives. Treatments were renewed 3 times a week. After 6 weeks, colonies were visualized with a phase‐contrast microscope and their number and size were quantified using IMAGEJ software.
as §1

[3] = system: HBMECs overexpressing p95 HER2; experiment: Proliferation of HBMECs overexpressing p95 HER2 (Incucyte); details: 5 μM, Incucyte 5 days
Method: (§3) 25.10^3 cells/96‐well transfected HBMECs or 9.10^3 cancer cells were seeded and monitored with an Incucyte S3 imaging system (Sartorius, Goettingen, Germany) using 10× objective every 2 h during 5 days. Confluency analyses were performed using the dedicated Incucyte analysis system.
(§4) (D–F) Proliferation was assessed by Incucyte during 5 days. Data are mean ± SEM of a representative experiment out of two independent experiments. Two‐way ANOVA followed by Bonferroni's multiple comparison test, ***P < 0.001, ****P < 0.0001.
(§5) (A-B) HBMECs transfected with empty vector (pRK5) or vectors encoding gD-HER2 WT, the truncated gD-
Proliferation was assessed by Incucyte during 5 days. Representative micrographs are shown (A).
Representative quantification of the proliferation (B) is shown where data are mean ± sem (n=8-12). Two-way
ANOVA followed byBonferroni’s multiple comparison test, *** P<0.001, **** P<0.0001. Scale bars are 100 µM.
(§6) vehicle, 5-10 µM Ebselen oxide or 5 µM AG1478. Proliferation was assessed by MTT assay during 3 days.
(§7) Data are mean ± sem (n=3). Two-way ANOVA followed by Bonferroni’s multiple comparison test, * P<0.05 **

NCI-N87 [4] = experiment: Incucyte proliferation, single agents and combinations, NCI-N87; format: cell-based; details: Homo sapiens, NCI-N87, 96 h; read-out: Reduction/inhibition of cell proliferation
Method: (§2) (A–C) Proliferation curves of HER2‐positive (SKBR3, A; BT474, B; NCI‐N87, C) cancer cell lines treated or not with ebselen oxide (10 μM), lapatinib (10–1000 nM), or combination of these agents, as indicated. Proliferation was assessed overtime by Incucyte during 4 days. Data are mean ± SD (n = 8–12) of a representative experiment out of 4 (A), 3 (B), or 2 (C) independent experiments. […] Proliferation was assessed by Incucyte during 4 days. […] Scale bars are […].

[5] = target: T1, HER2 (pY1248) in MDA-MB-231 (Homo sapiens, UniProt P04626); experiment: HER2 activation in MDA-MB-231 cells, western/dot blot; format: cell-based; details: MDA-MB-231, low HER2 expression
T1 construct: host or cells: MDA-MB-231

NCI-N87 [6] = experiment: Anchorage-independent growth (spheroid assay, ULA plates), NCI-N87; format: cell-based, human; details: ebselen oxide 10 μM, lapatinib 10 nM, trastuzumab 10 μg·mL−1, alone or combined
Method: 5.10^3 cells/24‐well were seeded in a complete medium in ULA plates (Corning® Costar® (Corning, NY, USA) C LS3473‐24EA) in the presence of indicated compounds. Spheroids were imaged 6–8 days later with a phase‐contrast microscope, and their areas were measured using IMAGEJ software.
Proliferation was assessed overtime by Incucyte during 4 days. Data are mean ± SD (n = 8–12) of a representative experiment out of 4 (A), 3 (B), or 2 (C) independent experiments. One‐way ANOVA followed by Sidak multiple comparison test, (*, compared with Vehicle; ° and #, respectively, compared with lapatinib 10 and 1000 nM) ***P < 0.001, ****P < 0.0001. […] Proliferation was assessed by Incucyte during 4 days. Data are mean ± SD (n = 8–12) of a representative experiment out of two independent experiments. […] Images of a representative experiment out of 3 (G) or 4 (H) independent experiments and quantification of the colony total area are shown where data are mean ± SEM. One‐way ANOVA followed by multiple comparison test, *P < 0.05, **P < 0.01. Scale bars are 100 μM.

BT474 [7] = experiment: Incucyte proliferation, single agents and combinations, BT474; format: cell-based; details: Homo sapiens, BT-474, 96 h; read-out: Reduction/inhibition of cell proliferation
Method: as §2

[8] = system: HBMECs overexpressing V842I HER2; experiment: Proliferation of HBMECs overexpressing V842I HER2 (Incucyte, MTT)
Method: Cell medium was removed and replaced with fresh culture medium. 3‐(4,5‐dimethylthiazol‐2‐yl)‐2,5‐diphenyltetrazolium bromide (MTT reagent) was added at a final concentration of 1.2 mM for 2–4 h at 37 °C. Produced formazan was solubilized with DMSO and measured by 540 nm absorbance reading.
as §3, §4, §5
Proliferation was assessed by Incucyte during 5 days.
Representative quantification of the proliferation (B) is shown where data are mean ± sem (n=8-12).
ANOVA followed byBonferroni’s multiple comparison test, *** P<0.001, **** P<0.0001.
as §6, §7

MDA-MB-231 = experiment: MTT proliferation assay, MDA-MB-231; format: cell-based, human; details: 10 μM
Method: as §1

SKBR3 [9] = experiment: Incucyte proliferation, single agents and combinations, SKBR3; format: cell-based; details: Homo sapiens, SK-BR-3, 96 h; read-out: Reduction/inhibition of cell proliferation
Method: as §2

[10] = target: T2, JMHER2/FERME interaction (biot-JMHER2 peptide and GST-FERME, N-terminal FERM domain of ezrin) (Homo sapiens, UniProt P04626); experiment: AlphaScreen competition of HER2 juxtamembrane peptide / ezrin FERM domain interaction; format: binding; details: AlphaScreen, 20 h
T2 construct: purchased Proteogenix
Method: Biotinylated peptide derived from HER2 cytosolic juxtamembrane region (JMHER2, […] ) has been synthesized by Proteogenix (Schiltigheim, France). The binding reaction was described previously. Briefly, white 384‐well Optiplates (PerkinElmer, Whalham, MA, USA) were used to prepare GST‐FERME and biotinylated peptide in a binding buffer (PBS, pH 7.4, 5 mM MgCl2, and 0.02% CHAPS). GST‐FERME was incubated with biotinylated‐HER2 for 30 min at room temperature. AlphaScreen® Streptavidin Donor beads (20 μg·mL^−1) and Glutathione AlphaLISA® Acceptor Beads (20 μg·mL^−1) were added to the wells for overnight incubation in the dark and at room temperature. Light signal was detected with the EnVision® multilabel plate reader (PerkinElmer).
Ebselen came out as an interesting hit. Ebselen is a synthetic organoselenium compound with the anti‐inflammatory and antioxidant property that has been evaluated in clinical trials for ischemic stroke and acute hearing loss. However, in vivo, ebselen rapidly reacts with peroxynitrite to form ebselen oxide. […] In addition, using surface plasmon resonance (SPR), we confirmed that both compounds could directly bind to JMHER2 (Fig. 1E,F). […] The slight decrease in HER2 expression was not significant. To examine whether HER2 inhibition by ebselen oxide was dependent on JMHER2/FERME interaction, we transfected HBMEC cells with a previously described glycoprotein D‐tagged HER2 form mutated on the critical amino acids involved in ERM binding (gD‐HER2‐EBM*).

SKBR3 [11] = experiment: MTT proliferation assay, SKBR3; format: cell-based, human; details: 10 μM
Method: as §1

SKOV3 = experiment: Proliferation of SKOV3 cells; format: cell-based, human; details: ebselen oxide 7–10 μM, AG1478 5 μM
[12] = target: T3, JMHER2 (peptide derived from the cytosolic juxtamembrane sequence of HER2) (Homo sapiens, UniProt P04626); experiment: Surface plasmon resonance binding to immobilized HER2 juxtamembrane peptide; details: analyte 5 or 10 μM, 60 s injection
T3 construct: purchased Proteogenix
Method: Interaction was performed on a BIAcore T200 instrument BIAcore (Cytiva Life Sciences, Marlborough, MA, USA); GE Healthcare (Little Chalfont, UK). […] Ebselen or ebselen oxide was used as an analyte and injected at 5 or 10 μM at a flow rate of 25 μL·min^−1 for 60 s.

T1 sequence (P04626 23-1255): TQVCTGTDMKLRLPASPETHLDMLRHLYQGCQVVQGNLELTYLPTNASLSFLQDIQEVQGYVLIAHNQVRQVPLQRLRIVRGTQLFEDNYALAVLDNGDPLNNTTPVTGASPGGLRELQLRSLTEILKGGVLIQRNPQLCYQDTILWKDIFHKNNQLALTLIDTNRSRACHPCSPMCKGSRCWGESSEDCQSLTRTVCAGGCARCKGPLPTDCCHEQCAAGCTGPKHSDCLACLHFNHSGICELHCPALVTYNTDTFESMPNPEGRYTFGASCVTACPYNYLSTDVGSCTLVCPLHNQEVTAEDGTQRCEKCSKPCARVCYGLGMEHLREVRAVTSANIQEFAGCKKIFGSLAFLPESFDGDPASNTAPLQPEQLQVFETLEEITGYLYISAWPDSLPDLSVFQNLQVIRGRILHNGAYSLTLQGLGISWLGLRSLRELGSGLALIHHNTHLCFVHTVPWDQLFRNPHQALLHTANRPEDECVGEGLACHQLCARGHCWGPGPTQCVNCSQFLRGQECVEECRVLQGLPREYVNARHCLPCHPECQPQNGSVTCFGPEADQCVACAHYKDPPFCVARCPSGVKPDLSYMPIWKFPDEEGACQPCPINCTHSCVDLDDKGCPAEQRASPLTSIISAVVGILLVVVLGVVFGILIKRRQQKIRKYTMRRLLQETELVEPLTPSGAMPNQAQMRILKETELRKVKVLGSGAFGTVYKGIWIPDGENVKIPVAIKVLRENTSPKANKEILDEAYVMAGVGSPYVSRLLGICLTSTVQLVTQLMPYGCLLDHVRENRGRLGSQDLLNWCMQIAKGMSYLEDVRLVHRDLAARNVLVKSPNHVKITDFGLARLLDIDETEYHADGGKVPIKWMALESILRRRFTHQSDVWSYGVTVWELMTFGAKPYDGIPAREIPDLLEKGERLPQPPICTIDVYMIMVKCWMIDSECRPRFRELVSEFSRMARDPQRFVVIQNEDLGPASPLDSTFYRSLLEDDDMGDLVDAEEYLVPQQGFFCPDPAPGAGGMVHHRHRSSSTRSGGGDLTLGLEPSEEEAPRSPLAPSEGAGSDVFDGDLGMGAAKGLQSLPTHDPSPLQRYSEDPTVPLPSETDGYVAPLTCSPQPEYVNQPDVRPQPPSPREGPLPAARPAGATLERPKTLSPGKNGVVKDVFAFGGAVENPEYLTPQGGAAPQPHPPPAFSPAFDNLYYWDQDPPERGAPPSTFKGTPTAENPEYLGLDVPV

O=C1c2ccccc2[Se](=O)N1c1ccccc1 (stereo not shown) [Ebselen oxide, ebselen oxide]
Reduction of proliferation rate (BT474 [1]): 55% | Reduction in the size of micro-colonies (SKBR3 [2]): more than 40% | Inhibition of cell proliferation induced by overexpression of p95 HER2 [3]: almost totally inhibited | inhibition at 10 µM (NCI-N87 [4]): 45% | Effect on HER2 activation [5]: no effect | Reduction of anchorage-independent growth (spheroid assay) (NCI-N87 [6]): 23% | inhibition at 10 µM (BT474 [7]): 30% | Inhibition of cell proliferation induced by overexpression of V842I HER2 ([8]; 5 μM, Incucyte 5 days): almost totally inhibited | Inhibition of proliferation compared with AG1478 (5 μM) ([8]; MTT 3 days, V842I): similar | Effect on proliferation rate (MDA-MB-231): did not reduce | inhibition at 10 µM (SKBR3 [9]): 64% | IC50 [10]: 0.634 µM | EC50 ([10]; read-out: EC50, μM (inhibition of HER2-FERME interaction)): 0.634 µM | Reduction of proliferation rate (SKBR3 [11]): 35% | Effect on proliferation (SKOV3): reduced proliferation | Direct binding to JMHER2 (SPR) [12]: directly bind
